Laboratory results: publication PMC9118553, “In Vivo Bioconcentration of 10 Anionic Surfactants in Rainbow Trout Explained by In Vitro Data on Partitioning and S9 Clearance” (Environmental Science & Technology, 2022)
Several values for one entry are separate records, joined by “and”; a condition that tells them apart may be missing. Equal entries are not always repeated.

Assays:
[1] = Baseline screening BCF (0.0125 DMLW, equilibrium partitioning, no biotransformation); settings: for Log baseline BCF: determined as 0.0125 DMLW
Text: Recently, the concept of a baseline screening BCF was introduced for surfactants, based on equilibrium partitioning assuming no biotransformation.[19] The baseline screening BCF for the study chemicals exceeded the measured BCF by 1–2.5 orders of magnitude (Table S16), providing further evidence that biotransformation is an important factor influencing the elimination—and thereby the BCF—of the anionic surfactants studied here in rainbow trout. The deviation of PFOA and PFOS from the regression between BCF and DMLW (Figure 1, upper panel) is attributable to them not being biotransformed.
Table S16: Comparison of the BCF (determined with the measured concentrations in water) and the baseline screening BCF (determined as 0.0125 DMLWa)
CHEMICAL Log BCF Log baseline BCF Log difference […]
a Droge, S. T. J.; Scherpenisse, P.; Arnot, J. A.; Armitage, J. M.; McLachlan, M. S.; Nichols, J.; von der Ohe, P.; Bonnell, M.; Hodges, G. Screening the baseline fish bioconcentration potential of various types of surfactants using phospholipid binding data. Environ. Sci.: Processes Impacts

rainbow trout = test: In vivo bioconcentration experiment with a mixture of anionic surfactants, flow-through aquaria, 10 °C, pH 7.8; settings: for Log BCF: determined with measured concentrations in water; for Concentration in fish: individual fish; for diffusion coefficient (D) in the epithelial membrane of the gills: in vivo; for BCF (kinetic): kinetic BCF from measured concentrations in water
Experimental: The bioconcentration of a mixture of 10 anionic surfactants was measured in rainbow trout in water at pH 7.8. […] The experiment was conducted in flow-through aquaria with juvenile rainbow trout at 10 °C. Ethical approval for the experiments was obtained from Stockholms […] (decision 9967-2017). The fish, fish housing, fish handling, and procedure for introducing the mixture of […] chemicals were very similar to our previous study with cationic surfactants;[5] details are provided in Text S1. The experiment consisted of a 4-day exposure phase and a 7-day depuration phase. […] Water samples were collected and fish were sacrificed according to the schedule in Table S4. The water samples were collected just prior to the daily removal of feces from the aquarium. Triplicate samples were taken at each time point. […] The water/methanol mixture was analyzed using liquid chromatography-mass spectrometry (LC-MS)/MS as described below for fish. At each fish sampling, five fish were sacrificed. Following stunning and severance of the spinal cord, the whole fish were placed in a polyethylene bag, weighed, and immediately frozen at -20 °C. The weight of the individual fish at sacrifice was 24.0 ± 5.6 g. Three of the five fish from each time point were prioritized for analysis based on proximity to the median fish weight. Each fish was […] homogenized with an Ultra-turrax dispersing device. […] This mixture was homogenized in a bullet blender for 5 min and then placed in an ultrasound bath at 45 °C for 15 min. Following centrifugation for 15 min@3200 RCF, the supernatant was decanted and the extraction was repeated. The extracts were combined. For instrumental analysis, 5 μL of the fish extract or 60 μL of the water/methanol mixture (water samples) was separated on an Acquity UPLC BEH C18 column fitted with a BEH C18 pre-column and analyzed on a TSQ Quantiva triple quadrupole mass spectrometer. The mobile phase was methanol (10 mM ammonium acetate) and Milli-Q-filtered water (10 mM ammonium acetate) (see Table S5 for the liquid chromatography program). To avoid detergent blank peaks originating from cleaning mobile phase bottles, the methanol was prepared directly in the solvent bottle as delivered and Milli-Q was tapped into an empty methanol bottle. Furthermore, a guard column was fitted between the mobile phase and the autosampler to prevent background contamination from disturbing the analysis. All analytes were quantified against the BEHP internal standard, as it gave better reproducibility. […] The central goal of the analysis was to estimate kU and kT as well as the BCF (=kU/kT) from measurements of surfactant concentration in fish and water samples collected at different time points of the experiment. For the fish, only those time points were included for which CF(measured) was above the limit of quantitation (LOQ) in all three fish (data below the LOQ will have a positive bias; including them would result in a negative bias in kT). In this analysis, there exist two sources of uncertainty: first, uncertainty in the actual concentration in water CW at the time of sample collection and second, variability in the concentration in fish around the (expected) surfactant concentrations in fish assumed to follow model (1). We therefore set up a model in which we considered uncertainty in both water and fish measurements simultaneously by assuming a parametric model for the surfactant concentration in the water over time (either linear or quadratic) and accounted for the uncertainty in the corresponding parameters of the water model during the estimation of kU and kT. This was done in a joint Bayesian model that we estimated via Hamiltonian Monte Carlo. […]

[2] = determined using nominal concentrations in water
[3] = from measured concentrations in water, Bayesian estimate, 95% credible interval in brackets
[4] = 95% credible interval in brackets
[5] = measured concentrations in water, simpler estimation method (Text S3), 95% confidence intervals in brackets

Compound	Log difference (baseline BCF vs BCF) [1] [L kg-1 ww]	Log baseline BCF [1] [L kg-1 ww]	BCF (rainbow trout; [2]) [L kg-1 ww]	Elimination rate constant kT (rainbow trout; [2]) [h⁻¹]	Uptake rate constant kU (rainbow trout; [2]) [L/kg/h]	Log BCF (rainbow trout) [L kg-1 ww]	Concentration in fish (rainbow trout; elimination phase, 97 h)	Concentration in fish (rainbow trout; elimination phase, 98 h)	Concentration in fish (rainbow trout; elimination phase, 100 h)	Concentration in fish (rainbow trout; elimination phase, 103 h)	Concentration in fish (rainbow trout; elimination phase, 120 h)	Concentration in fish (rainbow trout; elimination phase, 128 h)	Concentration in fish (rainbow trout; elimination phase, 144 h)	Concentration in fish (rainbow trout; elimination phase, 168 h)	Concentration in fish (rainbow trout; elimination phase, 192 h)	Concentration in fish (rainbow trout; elimination phase, 264 h)	Concentration in fish (rainbow trout; exposure phase, 1 h)	Concentration in fish (rainbow trout; exposure phase, 2 h)	Concentration in fish (rainbow trout; exposure phase, 3 h)	Concentration in fish (rainbow trout; exposure phase, 4 h)	also measured
CCCCCCCCCCCCOCCOCCOCCOCCOS(=O)(=O)O [C12-EO4-SO4, dodecyltetraethoxysulfate]	2.38	2.34	1.42	0.114	0.162	-0.05	35 ng g-1 ww and 26 ng g-1 ww and 27 ng g-1 ww	17.6 ng g-1 ww and 19.9 ng g-1 ww and 15.8 ng g-1 ww	35.9 ng g-1 ww and 14.4 ng g-1 ww and 21 ng g-1 ww	11.6 ng g-1 ww and 16.1 ng g-1 ww and 15.1 ng g-1 ww	7.0 ng g-1 ww and 8.6 ng g-1 ww and 3.1 ng g-1 ww	5.5 ng g-1 ww and 7.5 ng g-1 ww and 4.5 ng g-1 ww	4.7 ng g-1 ww and 5.3 ng g-1 ww and 4.5 ng g-1 ww	4.1 ng g-1 ww and 2.7 ng g-1 ww and 1.8 ng g-1 ww	1.6 ng g-1 ww and 3.6 ng g-1 ww and 1.8 ng g-1 ww	3.3 ng g-1 ww and 2.4 ng g-1 ww and 1.5 ng g-1 ww	4.3 ng g-1 ww and 6.7 ng g-1 ww and 6.6 ng g-1 ww	6.7 ng g-1 ww and 8.9 ng g-1 ww and 6.4 ng g-1 ww	12.1 ng g-1 ww and 10.4 ng g-1 ww and 10.6 ng g-1 ww	14.5 ng g-1 ww and 16.2 ng g-1 ww and 14.2 ng g-1 ww	Concentration in fish (rainbow trout; exposure phase, 6 h): 23 ng g-1 ww and 18.6 ng g-1 ww and 13.5 ng g-1 ww; Concentration in fish (rainbow trout; exposure phase, 24 h): 24 ng g-1 ww and 34 ng g-1 ww and 23 ng g-1 ww; Concentration in fish (rainbow trout; exposure phase, 48 h): 26 ng g-1 ww and 33 ng g-1 ww and 38 ng g-1 ww; Concentration in fish (rainbow trout; exposure phase, 72 h): 30 ng g-1 ww and 39 ng g-1 ww and 35 ng g-1 ww; Concentration in fish (rainbow trout; exposure phase, 96 h): 45 ng g-1 ww and 27 ng g-1 ww and 42 ng g-1 ww; Elimination rate constant kT (rainbow trout; [3]): 0.100 (0.083–0.120) h^–1; Uptake rate constant kU (rainbow trout; [3]): 0.090 (0.074–0.109) L kg^–1 ww h^–1; diffusion coefficient (D) in the epithelial membrane of the gills (rainbow trout): 2.0 × 10^–8 m h^–1; BCF (kinetic) (rainbow trout; [4]): 0.89 (0.80–1.01) L kg^–1 ww; BCF (rainbow trout; [5]): 0.92 (29) L kg-1 ww; Elimination rate constant kT (rainbow trout; [5]): 0.098 (26) h-1; Uptake rate constant kU (rainbow trout; [5]): 0.090 (12) L kg-1 ww h-1
CCCCCCCCCCCOS(=O)(=O)O [C11SO4, undecylsulfate]	2.37	2.26	0.57	0.233	0.133	-0.11	5.9 ng g-1 ww and 5.5 ng g-1 ww and 6.7 ng g-1 ww	4.6 ng g-1 ww and 4.4 ng g-1 ww and 3.8 ng g-1 ww	6.6 ng g-1 ww and 3.0 ng g-1 ww and 3.5 ng g-1 ww	1.5 ng g-1 ww and 2.0 ng g-1 ww and 2.7 ng g-1 ww	1.06 ng g-1 ww and 0.77 ng g-1 ww and 0.51 ng g-1 ww	0.66 ng g-1 ww and 0.48 ng g-1 ww and 0.54 ng g-1 ww	0.53 ng g-1 ww and 0.27 ng g-1 ww and 0.19 ng g-1 ww	0.59 ng g-1 ww and 0.22 ng g-1 ww and 0.17 ng g-1 ww	0.08 ng g-1 ww and 0.13 ng g-1 ww and 0.09 ng g-1 ww	0.84 ng g-1 ww and 0.15 ng g-1 ww (2×)	3.1 ng g-1 ww and 3.6 ng g-1 ww and 4.1 ng g-1 ww	5.6 ng g-1 ww and 4.4 ng g-1 ww and 4.1 ng g-1 ww	7.5 ng g-1 ww and 9.4 ng g-1 ww and 7.6 ng g-1 ww	10.7 ng g-1 ww and 11.2 ng g-1 ww and 18.0 ng g-1 ww	Concentration in fish (rainbow trout; exposure phase, 6 h): 15.8 ng g-1 ww and 14.7 ng g-1 ww and 14.1 ng g-1 ww; Concentration in fish (rainbow trout; exposure phase, 24 h): 18.5 ng g-1 ww and 15.1 ng g-1 ww and 10.9 ng g-1 ww; Concentration in fish (rainbow trout; exposure phase, 48 h): 7.4 ng g-1 ww and 12.0 ng g-1 ww and 11.2 ng g-1 ww; Concentration in fish (rainbow trout; exposure phase, 72 h): 12.6 ng g-1 ww and 8.7 ng g-1 ww and 8.2 ng g-1 ww; Concentration in fish (rainbow trout; exposure phase, 96 h): 9.9 ng g-1 ww and 8.7 ng g-1 ww and 14.1 ng g-1 ww; Elimination rate constant kT (rainbow trout; [3]): 0.178 (0.151–0.206) h^–1; Uptake rate constant kU (rainbow trout; [3]): 0.136 (0.113–0.163) L kg^–1 ww h^–1; diffusion coefficient (D) in the epithelial membrane of the gills (rainbow trout): 3.7 × 10^–8 m h^–1; BCF (kinetic) (rainbow trout; [4]): 0.77 (0.68–0.87) L kg^–1 ww; BCF (rainbow trout; [5]): 0.74 (33) L kg-1 ww; Elimination rate constant kT (rainbow trout; [5]): 0.179 (19) h-1; Uptake rate constant kU (rainbow trout; [5]): 0.133 (27) L kg-1 ww h-1; BCF (rainbow trout; own values): 0.77 L kg^–1
